Values quoted from earlier work in patent US9211305B2, “Pharmaceutical compositions with glycosaminoglycans and use thereof in the treatment of chronic ulcers” (LABORATORIOS FARMACEUTICOS ROVI S.A., priority 2008, dated 2015).

Columns and labels:
factor Xa = details: commercial products; cited from earlier work
[1] = in vivo; cited from earlier work
[2] = Ph. Eur. 6th Edition; cited from earlier work

Substance | anti-factor Xa activity (factor Xa) | Plasma Half-Life [1] [h] | Plasma Half-Life Range [1] [h] | Anti-coagulating activity [2] [IU/mg]
Dalteparin | 110-210 IU/mg | 2.5 | 2.3 to 2.8 | –
Enoxaparin | 90-125 IU/mg | 4.2 | 4.0 to 4.4 | –
Heparin Sodium | – | – | – | ≥ 150
Nadroparin | – | 3.7 | 3.7 | –
Tinzaparin | 70-120 IU/mg | 3.0 | 3.0 | –
